Each structure is given as a SMILES string. Like-named read-outs stand apart in the source and are kept apart here.

Data set [1] has as its target T1, WT-TTR (Homo sapiens, UniProt P02766).
T1 construct: composed of 127-residue β-sheet-rich subunits; made in house; host or cells: E. coli
Description: RP-HPLC analysis of conjugation to recombinant WT-TTR. The data set is classed as binding. The conditions noted are these: data not shown. Here is the method: The ability of candidate covalent kinetic stabilizers Compounds 1-4 to form a chemoselective amide bond with the K15 residue of WT-TTR was assessed by incubating the recombinant WT-TTR tetramer (3.6 μM) with Compounds 1-4 (7.2 μM, the minimum concentration required to covalently modify both T4 binding sites) for 18 hours at 25° C. The stilbene-TTR conjugate was quantified by reverse-phase (RP)-HPLC using a denaturing acetonitrile gradient.
Recombinant WT-TTR was expressed as described previously [Lashuel et al., Biochemistry 38:13560-13573 (1999)]. For analysis of test compounds with TTR, each compound (1.5 μL in DMSO, 1.44 mM) was added to 300 μL of WT-TTR or K15A mutant TTR (3.6 μM, 10 mM sodium phosphate, 100 mM KCl, 1 mM EDTA, pH 7.0). The samples were vortexed, and incubated for 18 hours at 25° C. Reverse phase high performance liquid chromatography (RP-HPLC) was performed on a Water 600 E multi-solvent delivery system, using a Waters 486 tunable absorbance detector, a 717 autosampler, and a ThermoHypersil Keystone Betabasic-18 column μ150 Å pore size, 3 μm particle size, and mobile phase A; 0.1% TFA in 95% H2O+5% CH3CN and mobile phase B, 0.1% TFA in 95% CH3CN+5% H2O). Linear gradients were run from 100:0 to 0:100 A:B for 27 minutes.

Data set [2] has as its system WT-TTR cytotoxicity in human IMR-32 neuroblastoma cells. The conditions noted are these: cited from earlier work.
The target in data set [3] is T2, K15A-TTR (Homo sapiens, UniProt P02766, K35A).
T2 construct: composed of 127-residue β-sheet-rich subunits; made in house
The data set can be described thus: Acid-mediated K15A-TTR fibril formation with non-covalent stabilizers. The data set is classed as biochemical. The conditions noted are these: compound 7.2 μM, 72 hours, pH 4.4. The protocol: Compounds (5 μL of 1.44 mM solution in DMSO) were added to 495 μL of TTR (7.2 μM, in 10 mM sodium phosphate, 100 mM KCl, 1 mM EDTA, pH 7.0). The mixtures were vortexed and incubated (maintained) for 18 hours at 25° C. An acidic buffer solution (500 μL, 100 mM acetate, 100 mM KCl, 1 mM EDTA, pH 4.2) was added to obtain a final pH value of 4.4, and the mixtures were incubated at 37° C. for 72 hours without agitation. The solutions were vortexed to evenly distribute any precipitate, and turbidity was measured at 400 nm using a Hewlett Packard model 8453 UV-VIS Spectrophotometer.

Data set [4] deals with WT-TTR cytotoxicity in human IMR-32 neuroblastoma cells. Description: Inhibition of WT-TTR cytotoxicity in IMR-32 cells (resazurin reduction). Conditions: WT-TTR 8 μM, compounds 2, 4, 6 and 8 μM, 24 hours. The class given is cell-based. Here is the method:
Cell viability was measured after 24 hours by a resazurin reduction assay.
(§1) The human neuroblastoma IMR-32 cell line (CCL-127 ATCC) was maintained in Opti-MEM® medium (Invitrogen), supplemented with 5% FBS, 1 mM Hepes buffer, 2 mM L-glutamine, 100 units/mL penicillin, 100 μg/mL streptomycin and 0.05 mg/mL CaCl2 (complete cell medium). Cells were seeded in black wall, clear bottom, tissue culture treated 96-well plates (Costar) at a density of 6,000 cells/well in complete cell medium and incubated overnight (about 18 hours) at 37° C.
(§2) Recombinant WT-TTR purified in the cold was used as the cytotoxic insult. The protein was buffer-exchanged in Hanks' Balanced Salt Solution (HBSS, Mediatech, Manassas, Va.) at 10° C. using a Centriprep® filter device (10 kDa MWCO, Millipore). Compounds (16 mM in DMSO) were diluted 1:1000 with WT-TTR (16 μM in HBSS, filter sterilized) or with HBSS only, vortexed and incubated for 18 hours at 37° C. WT-TTR (16 μM in HBSS) containing the same amount of DMSO was prepared in parallel and incubated under the same conditions.
(§3) The medium was removed from the cells and replaced immediately by the TTR/compound mixtures or HBSS previously diluted 1:1 in Opti-MEM® supplemented with 0.8 mg/mL BSA, 2 mM Hepes buffer, 4 mM L-glutamine, 200 units/mL penicillin, 200 μg/mL streptomycin and 0.1 mg/mL CaCl2. The cells were incubated 24 hours at 37° C. Cell viability was evaluated by a resazurin reduction assay.
(§4) Briefly, 10 μL of resazurin (500 μM, PBS) was added to each well and fluorescence quantified in a plate reader (Ex/Em 530/590 nm, Tecan Safire 2, Austria) after 1 hour of incubation at 37° C. Cell viability was calculated as percentage of fluorescence relative to cells treated only with vehicle (100% viability) after subtraction of blank fluorescence (wells without cells). Averages and standard errors from 2 independently performed studies, each performed at least in triplicate, were calculated using GraphPrism (San Diego, Calif., US).
For orientation: The colour change of resazurin is a common sign of viable cells or microbes.

Another data set deals with IMR-32 cells. Description: Compound cytotoxicity to IMR-32 cells in the absence of WT-TTR. The class given is cell-based, human. The protocol: Metabolically active cells reduce the resazurin redox dye to resorufin, a soluble fluorescent compound. [O'Brien et al., Eur. J. Biochem. 267:5421-5426 (2002)] The percentage of viable cells was calculated relative to cells treated with vehicle only (cell culture media and DMSO=100% viable).
as §1, §2, §3, §4

The target in data set [5] is T2, K15A-TTR. Description: Fluorimetric assay with recombinant K15A-TTR. Conditions: B2 7.2 μM. The data set is classed as binding. The protocol: [The source words this procedure for another variant and says it was used here with some conditions changed.] The excitation spectra are shown with dotted traces (λmax=328 nm), and emission spectra are adjacently (λmax=384 nm). Very low fluorescence resulted from 328 nm excitation of stilbene Compounds 4 or 2 alone in buffer (FIGS. 4A and 4B; traces substantially on the X-axis).
WT-TTR was expressed in an E. coli expression system and purified as described previously. [Lashuel et al., Biochemistry 1999, 38, 13560-13573] The covalent TTR modifiers (A1 or A2) or the non-covalent TTR ligand B2 (5 μL of a 1.44 mM solution in DMSO, final concentration: 7.2 μM) were added to 1 mL of a solution of WT-TTR homotetramer (0.2 mg/mL, 3.6 μM) in 10 mM phosphate, 100 mM KCl and 1 mM EDTA (pH 7.0 phosphate buffer) in a 2 mL Eppendorf tube. The samples were vortexed, and incubated for 18 h at 25° C. The fluorescence changes were monitored using a Varian Cary 50 spectrofluorometer at 20° C. in a 1 cm path length quartz cell. The excitation slit was set at 5 nm and the emission slit was set at […]. The samples were excited at 328 nm and the emission spectra were collected from 350 to 550 nm.
WT-TTR was expressed and purified from an E. coli expression system as described previously. [Lashuel et al., Biochemistry 1999, 38:13560]. The covalent modifiers (Compounds 4 or 2) or the non-covalent TTR ligand Compound B2 (5 μL of a 1.44 mM solution in DMSO) were added to 1 mL of a solution of WT-TTR (0.2 mg/mL, 3.6 μM) in 10 mM phosphate, 100 mM KCl and 1 mM EDTA (pH 7.0) in a 2 mL Eppendorf tube. The samples were vortexed, and incubated for 18 hours at 25° C. The fluorescence changes were monitored using a Varian Cary 50 spectrofluorometer at 20° C. in a 1 cm path length quartz cell. The excitation slits was set at 5 nm and the emission slits was set at […]. The samples were excited at 328 nm and the emission spectra were collected from 330 to 550 nm (FIG. 4). The time-dependent fluorescence changes were monitored in similar manner (FIG. 5).

The nature of data set [6]: Quantum yield measurement in buffer. The data set is classed as physicochemical. Here is the method: (§5) The covalent TTR modifier A1 or A2 or the non-covalent TTR ligand B2 (15 μL of a 1.44 mM solution in DMSO, final concentration: 7.2 μM) was added to 3 mL of a solution of WT-TTR homotetramer (0.2 mg/mL, 3.6 μM) in 10 mM phosphate, 100 mM KCl and 1 mM EDTA (pH 7.0 phosphate buffer). The samples were vortexed, and incubated for 18 hours at 25° C. Quantum yields were measured by following the instructions at the web site: jobinyvon.com/usadivisions/Fluorescence/applications/quantumyieldstrad.pdf. Quinine bisulfate in 0.5 M H2SO4 was used as a reference for comparison (Φf=0.546). [Crosby et al., J. Phys. Chem. 1971, 75, 991-1024.]

In data set [7] the target is T1, WT-TTR. Description: Quantum yield measurement with WT-TTR. The class given is physicochemical. Conditions: compound 7.2 μM. The protocol: as §5
Data set [8] can be described thus: Photoisomerization upon irradiation (312 nm, 10 seconds). The class given is physicochemical. The conditions noted are these: 312 nm. The protocol:
Although TTR can bind to small molecules composed of two aromatic rings when the tethered rings are up to 40° out of plane {based on TTR-stilbene crystal structures [Klabunde et al., Nat. Struct. Biol. 2000, 7, 312-321; Connelly et al., Curr. Opin. Struc. Biol. 2010, 20, 54-62; Johnson et al., J. Med. Chem. 2008, 51, 6348-6358; Choi et al., J. Am. Chem. Soc. 2010, 132, 1359-1370; Choi et al., Nat. Chem. Biol. 2010, 6, 133-139; Baures et al., Bioorg. Med. Chem. 1998, 6, 1389-1401; and Baures et al., Bioorg. Med. Chem. 1999, 7, 1339-1347]}, it would be energetically unfavorable to bind the excited singlet state in a conformation where the two aryl rings are oriented perpendicular to one another. Thus, we propose that the increase in fluorescence quantum yield of B2 from 0.09 in buffer to 0.55 in complex with TTR results from the resculpted excited singlet state energy surface of the stilbene in complex with TTR, such that the trans-conformer is the only state of relatively low potential energy [Gorner, H.; Kuhn, H. J. Adv, Photochem. 1995, 19, 1-117; Malkin et al., J. Phys. Chem. 1964, 68, 1153-1163; Saltiel, J. J. Am. Chem. Soc. 1967, 89, 1036-1037; Saltiel et al., J. Am. Chem. Soc. 1972, 94, 6445-6457; Saltiel et al., J. Am. Chem. Soc. 1979, 101, 2982-2996; and Saltiel et al., J. Am. Chem. Soc. 1968, 90, 4759-4760] inhibiting photoisomerization-based relaxation of B2. That B2 binding to TTR inhibits B2 photoisomerization is consistent with the observation that the irradiation of B2 in buffer (Life Technologies, TFX-35M, 312 nm) for 10 seconds affords 60% of the cis isomer, along with other minor photoreaction products, whereas irradiation of B2 bound to TTR yields only 20% cis isomer.
It appears that the increase in fluorescence quantum yield of A2 from 0.00 in buffer to 0.27 in the TTR-(stilbene)n≦2 conjugate is only partly explained by the mechanism proposed for B2 [Gorner, H.; Kuhn, H. J. Adv, Photochem. 1995, 19, 1-117; Malkin et al., J. Phys. Chem. 1964, 68, 1153-1163; Saltiel, J. J. Am. Chem. Soc. 1967, 89, 1036-1037; Saltiel et al., J. Am. Chem. Soc. […]

The target in data set [9] is T1, WT-TTR. Description: Acid-mediated WT-TTR fibril formation assay (turbidity at 400 nm). Conditions: WT-TTR 3.6 μM, % fibril formation after 72 hours; read-out: IC50 (apparent), inhibition of WT-TTR amyloidogenesis. The class given is biochemical. Here is the method:
The mixtures were vortexed and incubated (maintained) for 18 hours at 25° C.

For data set [10], the system named is familial amyloid polyneuropathy (FAP). Conditions: phase II/III placebo-controlled; cited from earlier work.

Take `Cc1cc(/C=C/c2ccc(C(=O)Oc3ccc(F)cc3)cc2)cc(C)c1O` [Compound 7]: the “modification yield of the WT-TTR subunits (in words)” value on WT-TTR [1] is listed as “lower modification yield”.

For `Oc1ccc(C=Cc2cc(O)cc(O)c2)cc1` [resveratrol], in [2], the “inhibition of amyloid-formation-associated cytotoxicity (literature)” value is given as “known to inhibit amyloid-formation-associated cytotoxicity”.

With `Cc1cc(/C=C/c2ccccc2)cc(C)c1O` [Compound 9, reference compound], the “stabilization of K15A-TTR (in words)” value at K15A-TTR [3] is “additional stabilization of K15A-TTR was observed”. For the same molecule, in data set [4], the “inhibition of WT-TTR cytotoxicity to IMR-32 cells (in words)” value was “clearly and dose-dependently inhibits IMR-32 cytotoxicity”. Also, the “cytotoxicity to IMR-32 cells in the absence of WT-TTR” value with IMR-32 cells (human, IMR-32 neuroblastoma cells, 24 h, 8 µM) is “None of these compounds were cytotoxic to IMR-32 cells”.

With `CCCNC(=O)c1cc(/C=C/c2cc(C)c(O)c(C)c2)cc(N(C)C)c1` [Compound B2, (E)-3-(dimethylamino)-5-(4-hydroxy-3,5-dimethylstyryl)-N-propylbenzamide], at K15A-TTR [5], the “increase in fluorescence intensity upon binding to K15A-TTR (B2)” value is on record as “approximately 4 fold”. Also, the “fluorescence quantum yield in buffer” value in data set [6] was 0.09. Further, on WT-TTR [7], the “fluorescence quantum yield in complex or conjugate with TTR” value came to 0.55. Further, in data set [8], the “% cis isomer after irradiation bound to TTR” value stood at 20% and the “% cis isomer after irradiation in buffer” value is on record as 60%.

For `Cc1cc(/C=C/c2ccc(C(=O)O)cc2)cc(C)c1O` [Compound 8, reference compound], the IC50 (usually the midpoint of a concentration-inhibition curve) on WT-TTR [9] was approximately 3 µM. In addition, the “stabilization of K15A-TTR (in words)” value at K15A-TTR [3] is on record as “additional stabilization of K15A-TTR was observed”. The “inhibition of WT-TTR cytotoxicity to IMR-32 cells (in words)” value in [4] was “clearly and dose-dependently inhibits IMR-32 cytotoxicity”. In addition, the “cytotoxicity to IMR-32 cells in the absence of WT-TTR” value with IMR-32 cells is listed as “None of these compounds were cytotoxic to IMR-32 cells”.

Regarding `O=C(O)c1ccc2nc(-c3cc(Cl)cc(Cl)c3)oc2c1` [Tafamidis], the “clinical efficacy in familial amyloid polyneuropathy” value in [10] is listed as “halt the progression of familial amyloid polyneuropathy”.
